# *1 amine or outer side, *2 acyl side, *3 side chain or, on linkers, in order; H or OH if unused. Where a SMILES comes first, the peptide text is derived from it. Bridges are numbered along the chain shown (N, C = ends). X1 = O=C(CCC[*:2])[*:1]
# Columns and labels:
# Conditions in all cases: Compound Concentration 10.0 uM, Hit No
# [1] = molecular target: T1, Adenine DNA glycosylase (Homo sapiens) (UniProt Q9UIF7);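 note: human MUTYH activity read as 594 nm fluorescence from cleavage and release of a quenched DNA duplex, coupled with APE1 for strand incision, lower signal meaning inhibition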
# T1 sequence (whole entry): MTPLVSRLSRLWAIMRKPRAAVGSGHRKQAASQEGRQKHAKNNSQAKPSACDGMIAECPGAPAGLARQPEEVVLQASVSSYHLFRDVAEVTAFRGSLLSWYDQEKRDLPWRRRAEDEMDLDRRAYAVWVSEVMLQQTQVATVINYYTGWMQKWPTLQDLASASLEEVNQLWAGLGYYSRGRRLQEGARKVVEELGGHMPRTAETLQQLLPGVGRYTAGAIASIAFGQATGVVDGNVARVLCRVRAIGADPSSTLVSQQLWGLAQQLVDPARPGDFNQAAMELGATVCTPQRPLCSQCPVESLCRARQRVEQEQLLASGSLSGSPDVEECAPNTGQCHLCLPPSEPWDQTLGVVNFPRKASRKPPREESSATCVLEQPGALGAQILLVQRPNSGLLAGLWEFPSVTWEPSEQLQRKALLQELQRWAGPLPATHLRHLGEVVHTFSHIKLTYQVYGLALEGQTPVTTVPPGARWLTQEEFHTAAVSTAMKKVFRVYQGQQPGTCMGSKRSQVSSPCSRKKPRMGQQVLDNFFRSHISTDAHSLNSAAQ
# Description: Inhibition of MUTYH by quantifying inhibition of MUTYH-mediated cleavage and dissociation of quenched duplex DNA oligonucleotides, measured as fluorescence at 594 nm. To generate a functional strand incision and increase turn-over this assay is coupled to APE1.
# [2] = molecular target: T2, Endonuclease 8-like 2 (Homo sapiens) (UniProt Q969S2);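 note: fluorescence at 594 nm reports NEIL2 cutting and release of a quenched double-stranded DNA oligo substrate, reduced signal read as inhibition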
# T2 sequence (whole entry): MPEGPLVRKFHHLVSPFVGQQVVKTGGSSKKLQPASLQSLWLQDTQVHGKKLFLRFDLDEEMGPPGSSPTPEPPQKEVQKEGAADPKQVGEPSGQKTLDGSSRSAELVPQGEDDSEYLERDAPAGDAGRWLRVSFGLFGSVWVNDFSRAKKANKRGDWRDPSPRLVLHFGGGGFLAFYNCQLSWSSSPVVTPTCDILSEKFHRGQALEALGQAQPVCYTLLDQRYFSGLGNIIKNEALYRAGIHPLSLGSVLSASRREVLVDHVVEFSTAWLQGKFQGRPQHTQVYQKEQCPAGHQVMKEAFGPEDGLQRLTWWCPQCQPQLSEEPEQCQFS
# Description: Inhibition of NEIL2 by quantifying inhibition of NEIL2-mediated cleavage and dissociation of quenched duplex DNA oligonucleotides, measured as fluorescence at 594 nm.
# [3] = molecular target: Endonuclease 8-like 1 (Homo sapiens) (UniProt Q96FI4);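 note: fluorescence at 594 nm from quenched duplex DNA oligonucleotides released by NEIL1 cleavage and strand separation, reported as reduction of this enzyme activity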
# Chain of Endonuclease 8-like 1 (Homo sapiens) (Q96FI4 whole entry): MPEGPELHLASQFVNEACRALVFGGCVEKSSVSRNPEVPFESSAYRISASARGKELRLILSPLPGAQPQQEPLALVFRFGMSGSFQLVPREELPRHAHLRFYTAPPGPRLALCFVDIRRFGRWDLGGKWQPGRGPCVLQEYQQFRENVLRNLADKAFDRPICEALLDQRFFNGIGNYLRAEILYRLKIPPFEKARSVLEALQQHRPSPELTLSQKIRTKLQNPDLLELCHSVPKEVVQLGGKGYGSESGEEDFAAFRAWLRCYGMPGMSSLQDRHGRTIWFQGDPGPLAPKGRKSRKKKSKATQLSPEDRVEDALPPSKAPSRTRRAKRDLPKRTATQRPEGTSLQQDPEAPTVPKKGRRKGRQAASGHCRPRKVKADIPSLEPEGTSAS
# Description: Inhibition of NEIL1 by quantifying inhibition of NEIL1-mediated cleavage and dissociation of quenched duplex DNA oligonucleotides, measured as fluorescence at 594 nm.
# [4] = molecular target: G/T mismatch-specific thymine DNA glycosylase (Homo sapiens) (UniProt Q13569);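 note: human TDG cleavage of quenched duplex DNA oligonucleotides coupled to APE1, strand release read as fluorescence at 594 nm, inhibition of TDG activity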
# Chain of G/T mismatch-specific thymine DNA glycosylase (Homo sapiens) (Q13569 whole entry): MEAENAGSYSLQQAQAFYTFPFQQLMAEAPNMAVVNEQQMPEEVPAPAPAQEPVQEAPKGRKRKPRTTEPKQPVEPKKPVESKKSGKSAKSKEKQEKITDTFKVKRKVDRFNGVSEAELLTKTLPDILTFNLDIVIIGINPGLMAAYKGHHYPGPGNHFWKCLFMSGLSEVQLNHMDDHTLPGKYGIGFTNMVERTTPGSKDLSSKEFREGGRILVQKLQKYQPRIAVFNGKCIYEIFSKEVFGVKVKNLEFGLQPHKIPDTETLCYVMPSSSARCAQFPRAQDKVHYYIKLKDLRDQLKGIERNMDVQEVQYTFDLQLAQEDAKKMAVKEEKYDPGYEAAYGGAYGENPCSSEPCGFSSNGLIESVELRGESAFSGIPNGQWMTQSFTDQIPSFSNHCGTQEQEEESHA
# Description: Inhibition of TDG by quantifying inhibition of TDG-mediated cleavage and dissociation of quenched duplex DNA oligonucleotides, measured as fluorescence at 594 nm. To generate a functional strand incision and increase turn-over this assay is coupled to APE1.
# [5] = molecular target: N-glycosylase/DNA lyase (Homo sapiens) (UniProt O15527);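 note: OGG1 cleavage of a quenched duplex DNA oligonucleotide, coupled to APE1 for strand incision, read as fluorescence at 594 nm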
# Chain of N-glycosylase/DNA lyase (Homo sapiens) (O15527 whole entry): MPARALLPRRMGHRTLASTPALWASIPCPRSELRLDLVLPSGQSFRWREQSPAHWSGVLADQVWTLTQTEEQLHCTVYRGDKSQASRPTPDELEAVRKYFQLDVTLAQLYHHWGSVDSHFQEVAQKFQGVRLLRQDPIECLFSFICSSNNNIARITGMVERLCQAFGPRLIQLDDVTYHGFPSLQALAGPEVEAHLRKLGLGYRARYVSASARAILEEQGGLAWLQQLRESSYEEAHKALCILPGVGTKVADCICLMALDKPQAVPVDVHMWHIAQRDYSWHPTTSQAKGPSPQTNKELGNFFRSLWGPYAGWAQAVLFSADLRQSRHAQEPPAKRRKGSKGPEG
# Description: Inhibition of OGG1 by quantifying inhibition of OGG1-mediated cleavage and dissociation of quenched duplex DNA oligonucleotides, measured as fluorescence at 594 nm. To generate a functional strand incision and increase turn-over this assay is coupled to APE1.
# [6] = molecular target: DNA-3-methyladenine glycosylase (Homo sapiens) (UniProt P29372);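 note: enzyme assay where MPG cuts a quenched duplex DNA oligonucleotide probe, paired with APE1 for strand incision and turnover, read as fluorescence at 594 nm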
# Chain of DNA-3-methyladenine glycosylase (Homo sapiens) (P29372 whole entry): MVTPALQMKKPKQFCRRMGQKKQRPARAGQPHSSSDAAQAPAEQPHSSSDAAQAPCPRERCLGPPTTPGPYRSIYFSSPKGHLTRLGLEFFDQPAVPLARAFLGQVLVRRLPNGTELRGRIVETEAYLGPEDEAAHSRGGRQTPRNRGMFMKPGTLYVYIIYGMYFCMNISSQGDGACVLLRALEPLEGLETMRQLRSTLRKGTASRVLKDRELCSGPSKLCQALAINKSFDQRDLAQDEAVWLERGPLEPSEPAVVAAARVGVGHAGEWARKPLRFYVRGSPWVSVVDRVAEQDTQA
# Description: Inhibition of MPG by quantifying inhibition of MPG-mediated cleavage and dissociation of quenched duplex DNA oligonucleotides, measured as fluorescence at 594 nm. To generate a functional strand incision and increase turn-over this assay is coupled to APE1.
# [7] = molecular target: T3, Endonuclease III-like protein 1 (Homo sapiens) (UniProt P78549);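 note: enzyme assay tracking NTHL1 cutting and release of a quenched double-stranded DNA oligo substrate, read as fluorescence at 594 nm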
# T3 sequence (whole entry): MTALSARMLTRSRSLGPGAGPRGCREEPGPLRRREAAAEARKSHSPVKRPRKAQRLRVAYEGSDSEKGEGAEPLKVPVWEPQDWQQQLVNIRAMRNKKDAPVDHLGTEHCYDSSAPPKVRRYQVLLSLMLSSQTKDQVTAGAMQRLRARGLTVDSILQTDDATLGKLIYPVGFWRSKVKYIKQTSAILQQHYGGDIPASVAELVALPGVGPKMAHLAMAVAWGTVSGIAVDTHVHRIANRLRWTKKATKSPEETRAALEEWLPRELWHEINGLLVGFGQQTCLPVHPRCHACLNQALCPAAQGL
# Description: Inhibition of NTHL1 by quantifying inhibition of NTHL1-mediated cleavage and dissociation of quenched duplex DNA oligonucleotides, measured as fluorescence at 594 nm.
# [8] = molecular target: Methyl-CpG-binding domain protein 4 (Homo sapiens) (UniProt O95243);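 note: MBD4 activity read as fluorescence at 594 nm from cleavage and release of a quenched duplex DNA oligonucleotide, with APE1 coupled to incise the strand and raise turnover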
# Chain of Methyl-CpG-binding domain protein 4 (Homo sapiens) (O95243 whole entry, the tested form may be a part): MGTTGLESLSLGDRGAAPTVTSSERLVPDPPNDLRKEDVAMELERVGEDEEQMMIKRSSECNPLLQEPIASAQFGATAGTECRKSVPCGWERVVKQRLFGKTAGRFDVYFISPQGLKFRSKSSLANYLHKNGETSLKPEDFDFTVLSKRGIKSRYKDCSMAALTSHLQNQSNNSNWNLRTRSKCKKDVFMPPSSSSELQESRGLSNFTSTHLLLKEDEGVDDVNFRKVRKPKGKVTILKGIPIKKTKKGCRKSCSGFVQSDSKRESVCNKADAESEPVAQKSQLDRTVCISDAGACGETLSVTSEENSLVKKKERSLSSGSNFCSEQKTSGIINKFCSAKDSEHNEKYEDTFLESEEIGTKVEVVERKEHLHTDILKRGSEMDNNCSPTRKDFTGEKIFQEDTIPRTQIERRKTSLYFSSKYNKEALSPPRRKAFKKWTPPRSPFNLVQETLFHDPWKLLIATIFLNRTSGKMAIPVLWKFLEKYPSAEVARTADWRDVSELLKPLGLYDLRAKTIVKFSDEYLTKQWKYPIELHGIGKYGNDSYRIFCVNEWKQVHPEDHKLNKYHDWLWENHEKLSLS
# Description: Inhibition of MBD4 by quantifying inhibition of MBD4-mediated cleavage and dissociation of quenched duplex DNA oligonucleotides, measured as fluorescence at 594 nm. To generate a functional strand incision and increase turn-over this assay is coupled to APE1.
# [9] = molecular target: Uracil-DNA glycosylase (Homo sapiens) (UniProt P13051);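 note: UNG excision on a quenched double-stranded DNA oligo probe, with APE1 added for strand incision and turnover, read as fluorescence at 594 nm as strands separate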
# Chain of Uracil-DNA glycosylase (Homo sapiens) (P13051 whole entry): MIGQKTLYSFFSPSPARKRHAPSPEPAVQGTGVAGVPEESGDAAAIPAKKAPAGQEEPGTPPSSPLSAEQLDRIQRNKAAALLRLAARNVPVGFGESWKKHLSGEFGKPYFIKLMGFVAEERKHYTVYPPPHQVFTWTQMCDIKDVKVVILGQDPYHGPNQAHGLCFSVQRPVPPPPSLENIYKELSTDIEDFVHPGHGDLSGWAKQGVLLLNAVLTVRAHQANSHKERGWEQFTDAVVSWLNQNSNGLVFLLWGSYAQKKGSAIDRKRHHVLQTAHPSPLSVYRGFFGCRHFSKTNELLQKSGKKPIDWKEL
# Description: Inhibition of UNG by quantifying inhibition of UNG-mediated cleavage and dissociation of quenched duplex DNA oligonucleotides, measured as fluorescence at 594 nm. To generate a functional strand incision and increase turn-over this assay is coupled to APE1.
Compound,inhibition [1] [%],inhibition [2] [%],inhibition [3] [%],inhibition [4] [%],inhibition [5] [%],inhibition [6] [%],inhibition [7] [%],inhibition [8] [%],inhibition [9] [%]
CC1(C)SSC(C)(C)[C@@H](NC(=O)[C@@H](N)Cc2ccc(O)cc2)C(=O)NCC(=O)N[C@@H](Cc2ccccc2)C(=O)N[C@H]1C(=O)O,1.3,9.5,8.1,10.6,-3.29,7.58,17.3,-7.23,
O=c1ccc2c(OCCCCOc3ccccc3)c3ccoc3cc2o1,3.71,,-4.29,-7.24,3.75,29.9,3.87,11.1,-5.58
CCCCCCCC/C=C\CCCCCCCC(=O)NCc1ccc(O)c(OC)c1,5.55,,,13.7,-7.56,-5.12,-7.69,18.2,-4.89
C[N+]1(C)[C@@H]2C[C@@H](OC(=O)C(O)(c3cccs3)c3cccs3)C[C@H]1[C@@H]1O[C@@H]12,9.11,2.01,8.84,-0.0311,-4.25,-7.84,7.05,-8.5,
CS(=O)(=O)Nc1c(O)ccc2c1CCCC2C1=NCCN1 (centres undefined),23.1,,2.08,-0.654,-9.24,2.87,13.8,17.6,-0.201
CCCCN(CCCC)C(=O)CN1C[C@@H](c2ccc3c(c2)OCO3)[C@H](C(=O)O)[C@H]1c1ccc(OC)cc1,19.5,-2.98,-5.1,32.4,2.58,19.8,4.86,29.1,
Cc1nccn1CC1CCc2c(c3ccccc3n2C)C1=O (centres undefined),19,,6.23,0.598,-7.85,13.8,22,17,-9.34
FC(F)(F)c1cccc(-c2noc(-c3cc(-c4ccccc4)c(C(F)(F)F)s3)n2)c1,1.81,-4.73,,9.3,-2.17,-0.823,4.86,6.66,
COc1cc(C(C)C)c(Oc2cnc(NC(CO)CO)nc2N)cc1I,2,,-4.73,-1.74,-8.24,-3.99,6.35,-6.99,-4.17
N=C(N)NCCC[C@H](NC(=O)COCC(c1ccccc1)c1ccccc1)C(=O)O,3.99,-7.47,7.21,-4.14,-5.82,6.97,9.99,-5.83,
CCCCC1=NC2(CCCC2)C(=O)N1Cc1ccc(-c2ccccc2-c2nnn[nH]2)cc1,12.9,5.76,0.241,11.8,-0.701,12.4,-1.01,9.56,
CN(C)CCn1cc(S(=O)(=O)c2cccc(F)c2)c2cccnc21,1.09,,-6.66,2.84,-9.57,4.26,10.5,7,-6.74
Cn1c(=O)n(CCCO)c(=O)c2c1nc(Oc1cccc(Cl)c1)n2Cc1ccc(Cl)cc1,15.9,,2.53,8.76,-1.16,11.6,12.1,23.2,0.363
CCCN[C@H]1CCc2nc(N)sc2C1,13.4,,-3.55,19.3,-6.43,-0.406,22,9.06,-5.95
O=C(O)CCC/C=C\C[C@H]1C(=O)C[C@@H](O)[C@@H]1/C=C/[C@@H](O)CCc1ccccc1,15.1,,-9.47,20.6,-5.63,-3.36,14.6,13.3,-6.21
CC(C)C[C@@H](NC(=O)[C@H](Cc1ccccc1)NC(=O)CNC(=O)[C@@H](C)NC(=O)[C@@H](N)Cc1ccc(O)cc1)C(=O)O,18.5,,,20.9,-5.5,-5.23,10.5,20,-7.3
CO[C@H]1CC[C@@H](C(=O)c2ccc3nc4c(cc3c2)CCCO4)CC1,-9.06,8.38,1.35,4.03,-3.26,-2.23,-6.5,-6.79,
CN1CCN2c3ccccc3Cc3ccccc3C2C1 (centres undefined),1.87,,-1.32,1.8,-6.17,9.97,-6.86,11.7,-6.73
C[C@@H](NC(=O)Cc1ccc(C2CC2)cc1)c1ccc(OCC(F)(F)F)cn1,-6.51,-6.21,0.602,4.49,,10.8,11.3,4.9,-2.14
CCOC(=O)c1ncn2c1[C@@H]1CCCN1C(=O)c1cc(OC)ccc1-2,-3.58,-4.43,-2.51,-5.12,,-5.68,-3.56,14.4,-7.79
Nc1nc(Nc2ccccc2)nc2c1ncn2[C@@H]1O[C@H](CO)[C@@H](O)[C@H]1O,-1.27,,-6.51,10.5,6.96,-7.65,1.39,11.6,-5.2
CN1CC[C@@]23CCCC[C@@H]2[C@@H]1Cc1ccc(O)cc13,-5.81,-9.52,-2.06,-3.74,,-0.416,14.6,3.69,-7.94
CC[C@H](C)[C@@H]1NC(=O)[C@H](Cc2ccc(OC)cc2)NC(=O)CCCSC[C@@H](C(=O)N2CCC[C@H]2C(=O)N[C@@H](CC(C)C)C(=O)NCC(N)=O)NC(=O)[C@H](CC(N)=O)NC(=O)[C@H](CCC(N)=O)NC1=O (Y(Me)IQNCPLG-NH2; linker N-5 via X1),-1,-7.22,-0.0556,-1.9,-9.58,-9.15,33.4,-5.48,
Nc1nc(CC(=O)Nc2ccc(CCNC[C@H](O)c3ccccc3)cc2)cs1,7.21,-2.64,3.71,2.71,,5.02,22,6.31,-1.78

# Source: ChEMBL document CHEMBL5665443, “Enzyme Inhibitor Single Concentration assay results for EUbOPEN Chemogenomics Library” (2024)
